Reference: patent US20240246977A1, “DEGRADATION OF BRUTON'S TYROSINE KINASE (BTK) BY CONJUGATION OF BTK INHIBITORS WITH E3 LIGASE LIGAND AND METHOD OF USE” (BeiGene Switzerland GmbH, priority 2021, published 2024)

Assays:
HEK-293 cells = assay: HEK-293 cytotoxicity detection (CellTiter-Glo); assay type: cell-based; details: Homo sapiens, 72 h, 72 h incubation, CellTiter-Glo luminescence, read-out: HEK293
How it was run: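 HEK-293 cells exposed 72 h to 8 compounds doses (4-fold dilutions, top stock 5 mM at 500×) in 0.2% DMSO. Viability by CellTiter-Glo luminescence; inhibition normalised to DMSO high control and low control, IC50 from four-parameter curve fit.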

BTK = BTK (Homo sapiens, UniProt Q06187); assay: BTK cell degradation in TMD-8 cells, HTRF assay; assay type: cell-based; set-up: endogenous in cells; host or cells: TMD-8 cells; details: 6 h treatment, IC50 (DC50) of BTK degradation
Sequence of BTK (Q06187 whole entry): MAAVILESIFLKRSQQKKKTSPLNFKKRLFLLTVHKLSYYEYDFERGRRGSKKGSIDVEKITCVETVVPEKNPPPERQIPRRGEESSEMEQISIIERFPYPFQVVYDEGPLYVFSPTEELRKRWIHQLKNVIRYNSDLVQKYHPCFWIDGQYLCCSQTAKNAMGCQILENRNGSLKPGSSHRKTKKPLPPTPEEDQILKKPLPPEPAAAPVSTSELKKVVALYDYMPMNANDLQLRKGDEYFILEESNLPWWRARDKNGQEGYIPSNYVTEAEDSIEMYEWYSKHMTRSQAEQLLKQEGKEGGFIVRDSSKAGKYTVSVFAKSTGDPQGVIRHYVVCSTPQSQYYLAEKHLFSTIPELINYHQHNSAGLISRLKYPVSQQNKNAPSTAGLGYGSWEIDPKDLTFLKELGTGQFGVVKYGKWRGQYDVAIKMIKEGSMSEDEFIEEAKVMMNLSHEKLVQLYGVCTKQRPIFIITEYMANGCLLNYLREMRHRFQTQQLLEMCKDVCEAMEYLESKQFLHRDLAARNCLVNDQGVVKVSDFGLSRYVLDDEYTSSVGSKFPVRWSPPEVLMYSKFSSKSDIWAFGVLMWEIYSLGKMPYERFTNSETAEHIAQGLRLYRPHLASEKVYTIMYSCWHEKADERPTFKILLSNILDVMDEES
How it was run: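 TMD-8 cells treated 6 h with 8-dose series (6-fold dilutions, 0.2% DMSO final), then lysed and BTK quantified by HTRF (337/665/620 nm) after overnight antibody incubation at room temperature. Degradation normalized to DMSO high and low controls; DC50 and Dmax from four-parameter fit.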

DC50 (BTK) [nM]	Structure (SMILES)	IC50 (HEK-293 cells) [nM]
5.37	Cc1cc(-c2nn3c(c2C(N)=O)Nc2ccc(N4CCN(CC5CCN(c6ccc(N7CCC(=O)NC7=O)cc6)CC5)CC4)cc2CC3)cc(C)c1C(=O)Nc1cc(C(F)(F)F)ccn1 [Example B7, 2-(3,5-dimethyl-4-((4-(trifluoromethyl)pyridin-2-yl)carbamoyl)phenyl)-7-(4-((1-(4-(2,4-dioxotetrahydropyrimidin-1(2H)-yl)phenyl)piperidin-4-yl)methyl)piperazin-1-yl)-9,10-dihydro-4H-benzo[d]pyrazolo[1,5-a][1,3]diazepine-3-carboxamide]	> 10000
3.67	Cc1cc(Cl)cc(NC(=O)c2ccc(-c3nn4c(c3C(N)=O)Nc3ccc(N5CCN(CC6CCN(c7ccc(N8CCC(=O)NC8=O)cc7)CC6)CC5)cc3CC4)c(F)c2C)n1 [Example B42, 2-(4-((4-chloro-6-methylpyridin-2-yl)carbamoyl)-2-fluoro-3-methylphenyl)-7-(4-((1-(4-(2,4-dioxotetrahydropyrimidin-1(2H)-yl)phenyl)piperidin-4-yl)methyl)piperazin-1-yl)-9,10-dihydro-4H-benzo[d]pyrazolo[1,5-a][1,3]diazepine-3-carboxamide]	> 10000
1.79	COc1ccc(C(F)(F)F)cc1C(=O)NCc1ccc(-c2nn3c(c2C(N)=O)Nc2ccc(N4CCN(CC5CCN(c6ccc(N7CCC(=O)NC7=O)cc6)CC5)CC4)cc2CC3)cc1F [Example C26, 7-(4-((1-(4-(2,4-dioxotetrahydropyrimidin-1(2H)-yl)phenyl)piperidin-4-yl)methyl)piperazin-1-yl)-2-(3-fluoro-4-((2-methoxy-5-(trifluoromethyl)benzamido)methyl)phenyl)-9,10-dihydro-4H-benzo[d]pyrazolo[1,5-a][1,3]diazepine-3-carboxamide]	108
4.06	Cc1nc(NC(=O)c2ccc(-c3nn4c(c3C(N)=O)Nc3ccc(N5CCN(CC6CCN(c7ccc(N8CCC(=O)NC8=O)cc7)CC6)CC5)nc3CC4)c(F)c2C)ccc1Cl [Example B52, 2-(4-((5-chloro-6-methylpyridin-2-yl)carbamoyl)-2-fluoro-3-methylphenyl)-7-(4-((1-(4-(2,4-dioxotetrahydropyrimidin-1(2H)-yl)phenyl)piperidin-4-yl)methyl)piperazin-1-yl)-9,10-dihydro-4H-pyrazolo[1,5-a]pyrido[3,2-d][1,3]diazepine-3-carboxamide]	> 10000
0.408	NC(=O)c1c(-c2ccc(C(=O)Nc3nccc(C(F)(F)F)c3F)cc2)nn2c1Nc1ccc(N3CCN(CC4CCN(c5ccc(N6CCC(=O)NC6=O)cc5)CC4)CC3)cc1CC2 [Example B13, 7-(4-((1-(4-(2,4-dioxotetrahydropyrimidin-1(2H)-yl)phenyl)piperidin-4-yl)methyl)piperazin-1-yl)-2-(4-((3-fluoro-4-(trifluoromethyl)pyridin-2-yl)carbamoyl)phenyl)-9,10-dihydro-4H-benzo[d]pyrazolo[1,5-a][1,3]diazepine-3-carboxamide]	180
1.7	Cc1cccc(NC(=O)c2ccc(-c3nn4c(c3C(N)=O)Nc3ccc(N5CCN(CCc6cc(F)c(C7CCC(=O)NC7=O)c(F)c6)CC5)cc3CC4)c(F)c2C)n1 (stereo not shown) [Example B62, 7-(4-(4-(2,6-dioxopiperidin-3-yl)-3,5-difluorophenethyl)piperazin-1-yl)-2-(2-fluoro-3-methyl-4-((6-methylpyridin-2-yl)carbamoyl)phenyl)-9,10-dihydro-4H-benzo[d]pyrazolo[1,5-a] [1,3]diazepine-3-carboxamide]	> 10000
5.66	Cc1cccc(NC(=O)c2ccc(-c3nn4c(c3C(N)=O)Nc3ccc(N5CCN(CCc6cc(F)c(C7CCC(=O)NC7=O)c(F)c6)CC5)cc3CC4)nc2C)n1 (stereo not shown) [Example B39, 7-(4-(4-(2,6-dioxopiperidin-3-yl)-3,5-difluorophenethyl)piperazin-1-yl)-2-(6-methyl-5-((6-methylpyridin-2-yl)carbamoyl)pyridin-2-yl)-9,10-dihydro-4H-benzo[d]pyrazolo[1,5-a][1,3]diazepine-3-carboxamide]	> 10000

Structure (SMILES)	DC50 (BTK) [nM]	IC50 (HEK-293 cells) [nM]
Cc1cccc(N(CC(=O)OC(C)(C)C)C(=O)c2ccc(-c3nn4c(c3C(N)=O)Nc3ccc(N5CCN(CC6CCN(c7ccc(N8CCC(=O)N(CC(=O)OC(C)(C)C)C8=O)cc7)CC6)CC5)cc3CC4)c(F)c2C)n1 [Example B77, tert-butyl 2-(3-(4-(4-((4-(2-(4-((2-(tert-butoxy)-2-oxoethyl)(6-methylpyridin-2-yl)carbamoyl)-2-fluoro-3-methylphenyl)-3-carbamoyl-9,10-dihydro-4H-benzo[d]pyrazolo[1,5-a][1,3]diazepin-7-yl)piperazin-1-yl)methyl)piperidin-1-yl)phenyl)-2,6-dioxotetrahydropyrimidin-1(2H)-yl)acetate]	> 2000	38.3
